In US20170280728A1, “ANTIMICROBIAL COMPOSITIONS AND METHODS OF THEIR USE” (CMS TECHNOLOGY, INC.., priority 2014, published 2017):

Legend:
[1] = tested on: General Bacteria (bacterial bird rinse); experiment: General Bacteria Assay (Vivione RAPID-B Total Plate Count); assay type: cell-based
[2] = tested on: Salmonella enterica serovar Anatum (ATCC #9270); experiment: Salmonella Assay (liquid sanitizer exposure, log reduction); assay type: cell-based

Row | SMILES | Average Live ([1]; 5 ppm copper, pH at inoculation 5.68, Baseline 1562) | Average Live ([1]; 50 ppm copper, pH at inoculation 4.71, Baseline 1562) | activity against bacteria (in words) ([1]; at 5 ppm and 50 ppm concentrations) | Treated Sample Reduction ([2]; 0 ppm chlorine, 10 ppm copper, Solution pH 6.0, Control Sample Baseline 7.02 log, n = 3) | antimicrobial effect (in words) ([2]; at lower ppm) | Average Live ([1]; pH at inoculation 2.43, Baseline 408)
1 | O.O.O.O.O.O=S(=O)([O-])[O-].[Cu+2] [Copper, Copper (II) sulfate pentahydrate] | 1633 | 1666 | negligible activity | 3.83 log | limited antimicrobial effect | –
2 | O=C(O)CC(O)(CC(=O)O)C(=O)O [citric acid @ 0.25%, citric acid] | – | – | – | – | – | 75
